Assay results published in patent publication US20060183902A1, “Dihydroindolyl methanones as alpha 1a/1d adrenoreceptor modulators for the treatment of benign prostatic hypertrophy and lower urinary tract symptoms” (priority 2005, published 2006).
pKi: −log10 of the molar value. Values joined by “and” are separate entries in the source; they are usually repeats but may differ in a detail not shown here. Equal entries are not always repeated.

Assays:
[1] = biological target: T1, α1a-AR (Homo sapiens, UniProt P35348); experiment: α1-Adrenergic receptor radio-ligand (125I-HEAT) binding assay, α1a subtype; conditions: COS-7 cell membranes transfected with α1a-AR, 125I-HEAT 50 pM; read-out: Receptor Binding, Ki α1a-AR
T1 construct: expressed in transfected cells; host or cells: COS-7
T1 sequence (P35348 1-466): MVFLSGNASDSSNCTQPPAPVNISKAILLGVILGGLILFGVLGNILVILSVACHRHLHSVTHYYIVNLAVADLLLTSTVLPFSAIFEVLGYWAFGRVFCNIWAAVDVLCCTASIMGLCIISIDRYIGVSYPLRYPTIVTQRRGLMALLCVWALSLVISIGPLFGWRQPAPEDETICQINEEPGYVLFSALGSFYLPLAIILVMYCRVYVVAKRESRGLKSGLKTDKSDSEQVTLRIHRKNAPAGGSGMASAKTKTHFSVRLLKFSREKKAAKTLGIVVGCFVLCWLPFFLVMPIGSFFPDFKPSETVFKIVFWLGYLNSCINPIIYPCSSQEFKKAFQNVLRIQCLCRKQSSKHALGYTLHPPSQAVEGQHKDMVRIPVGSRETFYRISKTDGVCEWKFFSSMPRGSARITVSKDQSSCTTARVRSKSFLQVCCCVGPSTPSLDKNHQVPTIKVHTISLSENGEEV
Method: (§1) Membranes were prepared from COS-7 cells (African Green monkey kidney SV40-transformed cells) that had been transfected with one of the three α1-AR subtypes by the following method:
(§2) COS cells from ten 100 mm tissue culture plates were scraped into a 5 mL volume of TE (a mixture of 50 mM tris(hydroxymethyl)aminomethane hydrochloride (Tris-HCl) and 5 mM ethylenediaminetetraacetic acid (EDTA) at pH 7.4). The cell suspension was disrupted with a Brinkman Polytron (at a setting of 8) for 10 sec. The disrupted cells were centrifuged at 1000×g for 10 min at 4° C. Supernatants were centrifuged at 34,500×g for 20 min at 4° C. The membrane pellets were suspended in a 2 mL volume of TNE (a mixture of 50 mM Tris-HCl, 5 mM EDTA and 150 mM NaCl at pH7.4). An aliquot of the membrane suspension was stored at −70° C. until use. The protein concentration was determined using a BioRad “DC” protein assay kit following membrane solubilization with Triton X-100.
(§3) Triplicate determinations of radio-ligand binding in the presence of increasing concentrations of testing compound were made. The reagents were added to 96-well polypropylene plate wells. Each assay well contained 140 μL TNE, 25 μL ^125I-2-(β-4-hydroxyplenyl)ethylaminomethyltetralone (^125I-HEAT) (specific activity 2200 Ci/mmol, Dupont-New England Nuclear, 50 pM final), 10 μL testing compound dissolved in dimethyl sulfoxide (DMSO) (1 pM to 10 μM in half-log increments, final), and 25 μL appropriate α1-AR membrane subtype suspension in TNE (0.5 ng/μL for the α1a and α1b subtypes and 13 ng/μL for the α1d subtype). The plate was incubated at rt for 1 hr. The contents of the wells were filtered through a glass filter (type C) (GF/C) membrane Unifilter plate (Packard Instruments) using the Packard Filtermate cell harvester. The filter plates were dried in a vacuum oven for 30 min at 40° C. 25 μL Microscint 20 liquid scintillation fluid (Packard Instuments) was added to each well. The radioactive content was analyzed in the TopCount microplate scintillation counter (Packard Instruments).
(§4) The Ki values (in nM) shown in Table 1 were determined using GraphPad Prism software.

[2] = biological target: T2, α1b-AR (Homo sapiens, UniProt P35368); experiment: α1-Adrenergic receptor radio-ligand (125I-HEAT) binding assay, α1b subtype; conditions: COS-7 cell membranes transfected with α1b-AR, 125I-HEAT 50 pM; read-out: Receptor Binding, Ki α1b-AR
T2 construct: expressed in transfected cells; host or cells: COS-7
T2 sequence (P35368 1-520): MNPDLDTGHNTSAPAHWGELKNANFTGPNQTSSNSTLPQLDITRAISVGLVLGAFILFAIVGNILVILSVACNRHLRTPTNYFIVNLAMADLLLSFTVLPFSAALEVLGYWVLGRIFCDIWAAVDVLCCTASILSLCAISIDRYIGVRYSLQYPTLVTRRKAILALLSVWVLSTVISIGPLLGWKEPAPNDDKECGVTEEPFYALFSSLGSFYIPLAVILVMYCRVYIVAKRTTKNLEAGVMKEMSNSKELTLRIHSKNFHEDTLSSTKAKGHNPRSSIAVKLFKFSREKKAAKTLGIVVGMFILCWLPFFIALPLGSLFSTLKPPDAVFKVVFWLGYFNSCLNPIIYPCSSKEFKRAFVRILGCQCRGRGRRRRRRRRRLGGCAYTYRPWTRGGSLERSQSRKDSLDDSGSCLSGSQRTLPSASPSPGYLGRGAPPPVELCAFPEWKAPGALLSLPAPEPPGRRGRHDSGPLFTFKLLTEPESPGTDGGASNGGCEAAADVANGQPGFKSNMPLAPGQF
Method: as §1, §2, §3, §4

[3] = biological target: T3, α1d-AR (Homo sapiens, UniProt P25100); experiment: α1-Adrenergic receptor radio-ligand (125I-HEAT) binding assay, α1d subtype; conditions: COS-7 cell membranes transfected with α1d-AR, 125I-HEAT 50 pM; read-out: Receptor Binding, Ki α1d-AR
T3 construct: expressed in transfected cells; host or cells: COS-7
T3 sequence (P25100 1-572): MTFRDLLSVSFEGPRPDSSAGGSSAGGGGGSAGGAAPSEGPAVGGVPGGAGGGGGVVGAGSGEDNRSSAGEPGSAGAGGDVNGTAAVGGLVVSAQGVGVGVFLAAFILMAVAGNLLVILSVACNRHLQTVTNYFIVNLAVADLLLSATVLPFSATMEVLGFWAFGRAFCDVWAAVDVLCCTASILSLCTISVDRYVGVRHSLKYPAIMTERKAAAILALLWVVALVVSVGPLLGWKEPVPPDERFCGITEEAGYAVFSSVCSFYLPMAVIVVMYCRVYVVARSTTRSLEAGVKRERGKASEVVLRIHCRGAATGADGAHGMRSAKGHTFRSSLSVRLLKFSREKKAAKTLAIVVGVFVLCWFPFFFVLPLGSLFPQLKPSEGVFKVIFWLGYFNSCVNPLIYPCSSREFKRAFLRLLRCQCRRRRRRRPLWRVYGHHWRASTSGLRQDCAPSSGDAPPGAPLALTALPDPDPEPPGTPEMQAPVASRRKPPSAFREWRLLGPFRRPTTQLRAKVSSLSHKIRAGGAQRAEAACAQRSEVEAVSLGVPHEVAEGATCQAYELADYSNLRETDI
Method: as §1, §2, §3, §4

SMILES | pKi [1] | pKi [2] | pKi [3]
CC(C)Oc1ccccc1N1CCN(Cc2cccc(C(=O)N3CCc4ccc(N(C(=O)Nc5c(F)cccc5F)C(=O)Nc5c(F)cccc5F)cc43)c2)CC1 [Cpd 43, 3-(2,6-difluoro-phenyl)-1-(1-{3-[4-(2-isopropoxy-phenyl)-piperazin-1-ylmethyl]-benzoyl}-2,3-dihydro-1H-indol-6-yl)-1-(2,6-difluorophenylaminocarbonyl)-urea] | 8.11 and 8.47 | 6.69 and 6.73 | 8.55 and 8.49
CC(C)Oc1ccccc1N1CCN(Cc2cccc(C(=O)N3CCc4ccc(NC(=S)Nc5ccccc5)cc43)c2)CC1 [Cpd 13, 1-(1-{3-[4-(2-isopropoxy-phenyl)-piperazin-1-ylmethyl]-benzoyl}-2,3-dihydro-1H-indol-6-yl)-3-phenyl-thiourea] | 7.48 | 6.52 | 8.40 and 8.51
CC(C)Oc1ccccc1N1CCN(Cc2cccc(C(=O)N3CCc4ccc(NS(=O)(=O)c5c(F)cccc5F)cc43)c2)CC1 [Cpd 45, 2,6-difluoro-N-(1-{3-[4-(2-isopropoxy-phenyl)-piperazin-1-ylmethyl]-benzoyl}-2,3-dihydro-1H-indol-6-yl)-benzenesulfonamide] | 8.59 | 6.05 | 8.40
N#Cc1ccccc1N1CCN(Cc2cccc(C(=O)N3CCc4ccccc43)c2)CC1 [Cpd 31, (2,3-dihydro-indol-1-yl)-{3-[4-(2-cyano-phenyl)-piperazin-1-ylmethyl]-phenyl}-methanone] | 6.77 | 6.48 | 7.94 and 7.06
COc1cccc(OC)c1CNc1ccc2c(c1)N(C(=O)c1cccc(CN3CCN(c4ccccc4OC(C)C)CC3)c1)CC2 [Cpd 7, [6-(2,6-dimethoxy-benzylamino)-2,3-dihydro-indol-1-yl]-{3-[4-(2-isopropoxy-phenyl)-piperazin-1-ylmethyl]-phenyl}-methanone] | 7.96 | 6.16 | 7.80
CC(C)Oc1ccccc1N1CCN(Cc2cccc(C(=O)N3CCc4ccc(N)cc43)c2)CC1 [Cpd 5, (6-amino-2,3-dihydro-indol-1-yl)-{3-[4-(2-isopropoxy-phenyl)-piperazin-1-ylmethyl]-phenyl}-methanone] | 8.72 | 6.84 | 8.70
CC(C)Oc1ccccc1C1CCN(Cc2cccc(C(=O)N3CCc4ccc(NS(=O)(=O)c5c(F)cccc5F)cc43)c2)CC1 [Cpd 58, 2,6-difluoro-N-(1-{3-[4-(2-isopropoxy-phenyl)-piperidin 1-ylmethyl]-benzoyl}-2,3-dihydro-1H-indol-6-yl)-benzenesulfonamide] | 9.10 and 9.30 | 6.63 and 6.59 | 8.72 and 9.00
CCOC(OCC)c1ccc(CNc2ccc3c(c2)CCN3C(=O)c2ccc(CN3CCC(c4ccccc4OC)CC3)cc2)cc1 [Cpd 36, [5-(4-diethoxymethyl-benzylamino)-2,3-dihydro-indol-1-yl]-{4-[4-(2-methoxy-phenyl)-piperidin-1-ylmethyl]-phenyl}-methanone] | 7.41 | 5.99 | 7.40
COc1ccccc1CN1CCN(Cc2cccc(C(=O)N3CCc4ccccc43)c2)CC1 [Cpd 64, (2,3-dihydro-indol-1-yl)-{3-[4-(2-methoxy-benzyl)-piperazin-1-ylmethyl]-phenyl}-methanone] | 6.98 | 6.84 | 7.00
CC(C)Oc1ccccc1N1CCN(Cc2cccc(C(=O)N3CCc4cc(S(C)(=O)=O)ccc43)c2)CC1 [Cpd 71, {3-[4-(2-isopropoxy-phenyl)-piperazin-1-ylmethyl]-phenyl}-(5-methanesulfonyl-2,3-dihydro-indol-1-yl)-methanone] | 7.85 and 7.76 | 6.15 and 6.14 | 7.80 and 7.68
CC(C)Oc1ccccc1N1CCN(Cc2cccc(C(=O)N3CCc4ccc(NS(N)(=O)=O)cc43)c2)CC1 [Cpd 20, N-(1-{3-[4-(2-isopropoxy-phenyl)-piperazin-1-ylmethyl]-benzoyl}-2,3-dihydro-1H-indol-6-yl)-sulfamide] | 8.33 and 8.09 | 6.31 and 6.40 | 8.72 and 8.59
COc1ccccc1C1CCN(Cc2cccc(C(=O)N3CCc4ccc(NS(=O)(=O)c5c(F)cccc5F)cc43)c2)CC1 [Cpd 61, 2,6-difluoro-N-(1-{3-[4-(2-methoxy-phenyl)-piperidin-1-ylmethyl]-benzoyl}-2,3-dihydro-1H-indol-6-yl)-benzenesulfonamide] | 7.81 | 6.82 | 8.68
CC(C)Oc1ccccc1CN1CCN(Cc2cccc(C(=O)N3CCc4ccccc43)c2)CC1 [Cpd 56, (2,3-dihydro-indol-1-yl)-{3-[4-(2-isopropoxy-benzyl)-piperazin-1-ylmethyl]-phenyl}-methanone] | 5.92 | 6.18 | 5.72
CC(C)Oc1ccccc1N1CCN(Cc2cccc(C(=O)N3CCc4cc(NC(=O)Nc5ccccc5)ccc43)c2)CC1 [Cpd 21, 1-(1-{3-[4-(2-isopropoxy-phenyl)-piperazin-1-ylmethyl]-benzoyl}-2,3-dihydro-1H-indol-5-yl)-3-phenyl-urea] | 7.14 | 5.86 | 7.90
COc1ccccc1C1CCN(Cc2ccc(C(=O)N3CCc4ccc([N+](=O)[O-])cc43)cc2)CC1 [Cpd 35, {4-[4-(2-methoxy-phenyl)-piperidin-1-ylmethyl]-phenyl}-(6-nitro-2,3-dihydro-indol-1-yl)-methanone] | 8.28 | 6.70 | 8.07
CC(C)Oc1ccccc1N1CCN(Cc2cccc(C(=O)N3CCc4cc(Br)ccc43)c2)CC1 [Cpd 66, (5-bromo-2,3-dihydro-indol-1-yl)-{3-[4-(2-isopropoxy-phenyl)-piperazin-1-ylmethyl]-phenyl}-methanone] | 8.89 | 7.08 | 9.52
COc1ccccc1N1CCN(Cc2cccc(C(=O)N3CCc4ccccc43)c2)CC1 [Cpd 30, (2,3-dihydro-indol-1-yl)-{3-[4-(2-methoxy-phenyl)-piperazin-1-ylmethyl]-phenyl}-methanone] | 7.59 and 7.52 | 6.56 and 6.71 | 8.35 and 7.38
